Values joined by “and” are separate entries in the source; they are usually repeats but may differ in a detail not shown here. Identical values can stand only once.
Tests used:
[1] = tested on: neutrophil elastase; experiment: Elastase activity and cell number in peripheral blood neutrophils after administration to rats; format: in vivo; conditions: rat, 8 mg/kg twice daily i.v. for three days; for Elastase Activity / Elastase Activity Rate/10^6 PMN: peripheral blood neutrophils; for Elastase Activity / Elastase Activity Rate/10^6 PMN / PMN / Total WBC: per animal, 8 mg/kg; for effect on elastase activity in circulating neutrophils (in words): vs vehicle
Experimental: (§1) Inhibitor A or B were each injected twice daily into the tail vein of a rat (8 mg/kg) over a period of three days. Inflammation was not induced in these rats. […] WBC=white blood cells; PMN=polymorphonuclear leukocytes; The elastase assay has been disclosed above.

[2] = tested on: rat; experiment: Overt toxicity in injected rats; format: in vivo; conditions: for overt signs of toxicity: rat, 8 mg/kg twice daily i.v. for three days
Experimental: as §1
(§2) Each compound (A-D) was individually injected into the tail vein of a rat in a single dose (8 mg/kg). After injection, peritonitis was induced in the rat by an IP (intraperitoneal) injection of 1 ml of a 0.1% soluble starch solution. After 4 hours, the peritoneal cavity was lavaged with saline in order to determine the number and type of cells responding to peritonitis. Cell numbers were determined by a Coulter counter and cell type (e.g. lymphocytes, neutrophils, macrophages and monocytes) by standard Cytospin and Giemsa staining. Cell number and type was evaluated after IP injection of saline (negative control, no inflammation), starch (positive control, inflammation) or starch with IV injection of an inhibitor (experimental, inflammation). Inhibitors were dissolved in DMSO prior to administration.

[3] = tested on: neutrophil diapedesis (peritonitis); experiment: Inhibition of neutrophil diapedesis after experimentally induced (starch) peritonitis; format: in vivo, rat; conditions: for Abdominal Lavage Cell Distribution, Lymphocytes / Abdominal Lavage Cell Distribution, Macrophages Monocytes / Abdominal Lavage Cell Distribution, Neutrophils: 4 hours
Experimental: as §2

[4] = tested on: peripheral blood neutrophils and lymphocytes; experiment: Peripheral blood cell distribution after administration to rats without inflammation; format: in vivo; conditions: rat, 8 mg/kg twice daily for three days; for Peripheral Blood Cell Distribution, Lymphocytes / Peripheral Blood Cell Distribution, Neutrophils / effect on number of neutrophils in peripheral circulation (in words): no inflammation; for Peripheral Blood Cell Distribution, Lymphocytes / Peripheral Blood Cell Distribution, Neutrophils: per animal, 8 mg/kg; for effect on number of neutrophils in peripheral circulation (in words): vs vehicle
Experimental: Compound A or Compound B were each administered twice daily for three days at a dose of 8 mg/kg. Inflammation was not induced in these rats. […] However, substitution of the aspirin moiety with a fluorine atom, as found in Compound B, prevents an increase in neutrophil cell number.

[5] = molecular target: T1, human leukocyte elastase (HLE) (Homo sapiens, UniProt P08246); experiment: Inactivation of human leukocyte elastase (kobs/[I]); format: biochemical
T1 construct: purchased Elastin Products Co., Owensville, Mo
T1 sequence (P08246 30-247 limits assumed): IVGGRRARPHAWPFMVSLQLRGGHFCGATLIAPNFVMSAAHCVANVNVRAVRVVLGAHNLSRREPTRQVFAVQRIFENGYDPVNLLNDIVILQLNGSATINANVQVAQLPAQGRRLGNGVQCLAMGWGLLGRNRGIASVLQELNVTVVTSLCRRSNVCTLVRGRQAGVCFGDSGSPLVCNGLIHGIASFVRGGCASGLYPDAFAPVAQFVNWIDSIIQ
Description: An in vitro assay can be used to screen compounds of the invention for the ability to reduce or inhibit serine proteinase activity. The human leukocyte elastase (HLE), cathepsin G (Cath G), and proteinase-3 assays have each been described (Groutas et al., J. Med. Chem. 32:1607-1611, 1989; Groutas et al., Arch. Biochem. Biophys. 294:144-146, 1992; Kao et al., J. Clin. Invest. 82:1963-1973, 1988, each incorporated by reference herein). The pseudo first-order inactivation rate constants (kobs) were obtained from plots of ln(vt /vo) vs t, and expressed in terms of the apparent second-order inactivation rate constant, kobs /[I] M^-1 s^-1 (Tables 1-7). Tables 1-7 disclose the activity of preferred compounds of the invention as inhibitors of HLE and Cath G. Table 7 discloses the activity of Compounds 4A (C) and 3E (D) as inhibitors of Proteinase-3 activity. Compounds (A) and (B) have been disclosed previously (Groutas et al., Bioorganic and Med. Chem. 1(4):273-277, 1993; Groutas et al., J. Med. Chem. 36:3178, 1993).
XII. Materials: Human leukocyte elastase was purchased from Elastin Products Co., Owensville, Mo.
Human leukocyte cathepsin G was obtained from Athens Research and Technology, Athens, Ga. Methoxysuccinyl Ala-Ala-Pro-Val p-nitroanilide and methoxysuccinyl Ala-Ala-Pro-Phe p-nitroanilide were purchased from Sigma Chemicals Co., St. Louis, Mo. Baker-analyzed 60-200 mesh silica gel was used for flash chromatography.

[6] = Experiment 1, starch, 8 mg/kg i.v. single dose
[7] = Experiment 2, saline (no inflammation) + drug
[8] = Experiment 2, starch, 8 mg/kg i.v. single dose

Row | SMILES | Elastase Activity [1] | Elastase Activity Rate/10^6 PMN [1] | entry into neutrophils in vivo (in words) [1] | inactivation of neutrophil intracellular proteinase (in words) [1] | PMN [1] | Total WBC [1] | effect on elastase activity in circulating neutrophils (in words) [1] | overt signs of toxicity [2] | Total Number of Cells Lavaged at 4 Hours, Lymphocytes [3, 6] | Total Number of Cells Lavaged at 4 Hours, Macrophages Monocytes [3, 6] | Total Number of Cells Lavaged at 4 Hours, Neutrophils [3, 6] | Total Number of Cells Lavaged at 4 Hours, Total Cells [3, 6] | Abdominal Lavage Cell Distribution, Lymphocytes [3, 6] [%] | Abdominal Lavage Cell Distribution, Macrophages Monocytes [3, 6] [%] | Abdominal Lavage Cell Distribution, Neutrophils [3, 6] [%] | Total Number of Cells Lavaged at 4 Hours, Lymphocytes [3, 8] | Total Number of Cells Lavaged at 4 Hours, Macrophages Monocytes [3, 8] | Total Number of Cells Lavaged at 4 Hours, Neutrophils [3, 8] | Total Number of Cells Lavaged at 4 Hours, Total Cells [3, 8] | Abdominal Lavage Cell Distribution, Lymphocytes [3, 8] [%] | other results
1 | O=C1c2ccccc2S(=O)(=O)N1CF [Drug B] | 0.125 ΔOD/min/ml and 0.05 ΔOD/min/ml | 0.0154 and 0.0159 | do not enter neutrophils in vivo | fails to inactivate neutrophil intracellular proteinase | 8.14 × 10^6 and 3.15 × 10^6 | 22.0 × 10^6 and 15.0 × 10^6 | did not reduce elastase activity in circulating neutrophils | no overt signs of toxicity | 8.1 × 10^6 | 7.8 × 10^6 | 10.1 × 10^6 | 26 × 10^6 | 31 | 30 | 39 | 9.9 × 10^6 | 9.6 × 10^6 | 12.5 × 10^6 | 32 × 10^6 | 31 | Total Number of Cells Lavaged at 4 Hours, Lymphocytes [3, 7]: 2.6 × 10^6; Total Number of Cells Lavaged at 4 Hours, Macrophages Monocytes [3, 7]: 14.5 × 10^6; Total Number of Cells Lavaged at 4 Hours, Neutrophils [3, 7]: 4.8 × 10^6; Total Number of Cells Lavaged at 4 Hours, Total Cells [3, 7]: 22 × 10^6; Abdominal Lavage Cell Distribution, Lymphocytes [3, 7]: 12%; Abdominal Lavage Cell Distribution, Macrophages Monocytes [3, 7]: 66%; Abdominal Lavage Cell Distribution, Neutrophils [3, 7]: 22%; Abdominal Lavage Cell Distribution, Macrophages Monocytes [3, 8]: 30%; Abdominal Lavage Cell Distribution, Neutrophils [3, 8]: 39%; reduction of peritonitis induced neutrophil diapedesis ([3]; rat, 8 mg/kg i.v. single dose): more than 50%; Peripheral Blood Cell Distribution, Lymphocytes [4]: 63% and 79%; Peripheral Blood Cell Distribution, Neutrophils [4]: 37% and 21%; effect on number of neutrophils in peripheral circulation (in words) [4]: did not cause an increase in neutrophil number
2 | CC(=O)Oc1ccccc1C(=O)OCN1C(=O)c2ccccc2S1(=O)=O [Drug A] | 0.55 ΔOD/min/ml and 0.70 ΔOD/min/ml | 0.014 and 0.015 | do not enter neutrophils in vivo | fails to inactivate neutrophil intracellular proteinase | 41.4 × 10^6 and 45.7 × 10^6 | 46.0 × 10^6 and 55.0 × 10^6 | did not reduce elastase activity in circulating neutrophils | no overt signs of toxicity | 7.0 × 10^6 | 7.6 × 10^6 | 11.0 × 10^6 | 25 × 10^6 | 28 | 38 | 44 |  |  |  |  |  | reduction of peritonitis induced neutrophil diapedesis ([3]; rat, 8 mg/kg i.v. single dose): more than 50%; morphology of circulating cells (in words) [4]: most of the circulating cells are morphologically mature; Peripheral Blood Cell Distribution, Lymphocytes [4]: 10% and 17%; Peripheral Blood Cell Distribution, Neutrophils [4]: 90% and 83%; effect on number of neutrophils in peripheral circulation (in words) [4]: caused an increase in the number of neutrophils into the peripheral circulation
3 | CC(C)C[C@H]1C(=O)N(CS(=O)(=O)c2ccccc2)S(=O)(=O)N1C [Compound 3E] |  |  |  |  |  |  |  |  |  |  |  |  |  |  |  | 6.4 × 10^6 | 7.7 × 10^6 | 17.9 × 10^6 | 32 × 10^6 | 20 | inhibition of elastase (in words) [5]: an elastase inhibitor; kinact/KI ([5]; Table 6): 7580 M⁻¹ s⁻¹; toxicity (in words) ([2]; rat peritonitis test, 8 mg/kg i.v. single dose): non-toxic; Abdominal Lavage Cell Distribution, Macrophages Monocytes [3, 8]: 24%; Abdominal Lavage Cell Distribution, Neutrophils [3, 8]: 56%; effect on neutrophil diapedesis (in words) ([3]; rat, 8 mg/kg i.v. single dose): substantially reduced neutrophil diapedesis
